According to US12551424B2, “Oil-in-water type emulsification composition containing UV wavelength conversion substance” (Shiseido Company, Ltd., priority 2019, dated 2026):

What was measured:
Human dermal fibroblasts [1] = assay: Restoration of cell activity decreased by prior UV irradiation (AlamarBlue); format: cell-based; conditions: FIG. 5
Experimental: (§1) A cell sample was prepared as follows: • 1. Human dermal fibroblasts and human skin keratinocytes purchased from Kurabo Industries Ltd. were used. A cell suspension (1 mL) stored in liquid nitrogen was thawed in a water bath (37° C.) to an extent that small ice pellets remained, and then diluted with 9 mL of warm medium. • 2. The diluted suspension was mixed gently and then transferred to a T75 flask and incubated overnight at 37° C. • 3. The next day, the medium was replaced with 10 mL of fresh medium. • 4. The medium was replaced periodically (once every 2 days for fibroblasts and once every 2 to 3 days for keratinocytes) and cell proliferation was continued. Meanwhile, the cells were observed using a microscope, and it was confirmed that the cells grew in the correct form. • 5. After the cells reached about 80% confluence, the cells were passaged. The cells were passaged by washing the cells once with 10 mL of warm PBS, adding 5 mL of warm trypsin to a T75 flask, covering the bottom of the flask with a trypsin solution, followed by aspirating at room temperature for 1 minute. • 6. The flask was allowed to stand in an oven at 37° C. for (maximum) 2 minutes for fibroblasts and (maximum) 7 minutes for keratinocytes. The cells were observed using a microscope and confirmed to be small and oval. • 7. Thereafter, the side of the T75 flask was lightly tapped to release the cells. […]

Human dermal fibroblasts [2] = assay: Cell activity (AlamarBlue) after UV irradiation through a solution of the UV wavelength conversion substance; format: cell-based; conditions: UV 0, 10, 25, 50, 75 or 100 mJ/cm^2, FIG. 3
Experimental: as §1

For C-phycocyanin, the “cell activity recovery effect, comparison of concentrations” value (Human dermal fibroblasts [1]; 0.4% versus 2% C-phycocyanin after 400 mJ/cm^2 pre-irradiation) was “equivalent at concentrations of 0.4% and 2%”, the “cell activity (relative fluorescence intensity) of cells with once decreased activity” value (Human dermal fibroblasts [1]; pre-irradiation 400 mJ/cm^2 without substance, then UV 0-200 mJ/cm^2 through 0.4% or 2% C-phycocyanin) was “cell activity was recovered” and the “cell activity (relative fluorescence intensity)” value (Human dermal fibroblasts [2]; 0.4% C-phycocyanin solution) was “the decrease in cell activity was suppressed”. The “cell activity (relative fluorescence intensity)” value (Human dermal fibroblasts [2]; 2% C-phycocyanin solution) was “the cell activity was even increased”.
